From PubChem BioAssay (NCI)
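How tested: cells in 96-well plates exposed to compound for 48 hours at five concentrations. TGI: concentration producing complete growth inhibition.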

Test system: SK-MEL-28 melanoma
Test: inhibition of tumour cell growth, NCI panel, 48 h

SMILES	TGI [µM]
CCC1(CC)C(=O)NC(=S)N=C1N	> 100
CC1=NC(C)(C)N(O)C1(C)C	> 100
O=c1oc2ccccc2c2nc3ccccc3cc12	> 100
CCCC[C@@H]1CCN2C[C@@H](O)[C@@H](O)[C@H]2[C@@H]1O	> 100
O=C(NN1C(=O)CSC1c1ccc(Cl)c(Cl)c1)c1ccncc1 (configuration not stated)	> 100
CCOC(=O)c1csc(NC(=O)CCCC#N)n1	> 100
O=c1cc(-c2ccccc2F)[nH]c2cc3c(cc12)OCO3	> 100
CC(C)(C)c1ccc2c(c1)OCc1n[nH]c(n1)COc1cc(C(C)(C)C)ccc1OCCOCCO2	9.52
COC1OC2COC(C)(C)OC2C2OC(C)(C)OC12 (configuration not stated)	> 100
CCNC(=S)N/N=C/c1ccccn1	> 100
COc1ccc(CCCCl)c(C2=NCCc3ccccc32)c1	> 100
O=C(CN=C(CN(c1ccccc1)c1ccccc1)Oc1c(Cl)cc(Cl)cc1Cl)n1cnc2ccccc21	> 100
C=C1CC=CC(C)(C)C1C/C=C(\C)C(O)CBr (configuration not stated)	> 100
CCOC(=O)C(C)NC(=O)N(C)C12CC3CC(CC(C3)C1)C2 (configuration not stated)	> 500
O=c1c2cc3c(=O)n(CCc4ccccc4CO)c(=O)c3cc2c(=O)n1CCc1ccccc1CO	> 100
CCc1cc(=O)n(/C(C)=C/c2ccccc2)n1C	> 100
C/C(=N\Nc1nc2ccccc2s1)c1cccnn1	> 100
FC(F)=C(c1ccc(-c2ccc(Cl)cc2)cc1)C(F)(F)F	28.4
COC(=O)[C@H]1C=C[C@H](OC2OC(COC(C)=O)C(OC(C)=O)C(OC(C)=O)C2OC(C)=O)n2c(=O)n(-c3ccccc3)c(=O)n21 (some centres not stated)	8.63
N/C(CSCCSC/C(N)=N/O)=N\O	> 100

Test system: LOX IMVI melanoma
Test: inhibition of tumour cell growth, NCI panel, 48 h

SMILES	TGI [µM]
CC1(C)OC(CCO)CN1C(=O)OCc1ccccc1 (configuration not stated)	> 100
COc1cc2c(cc1OCCCOc1cc3c(cc1OC)C(=O)N1CCC[C@H]1CN3)N=C[C@@H]1CCCN1C2=O	10.8
CCOC(=O)C1=C(C)NC(=O)N([N+](=O)[O-])C1c1ccccc1C(F)(F)F (configuration not stated)	> 100
O=c1c(Cc2ccccc2)c(-c2ccccc2)[nH]n1C1=NCCN1	38.1
CCOC(=O)Cc1nn2c(=O)cc(C)nc2s1	> 100
COP(=O)(CC(=O)C1OC(OCc2ccccc2)C(OCc2ccccc2)C(OCc2ccccc2)C1OCc1ccccc1)OC (configuration not stated)	32.3
CN1c2ccccc2C(=O)NC12CCN(CC1COc3ccccc3O1)CC2 (configuration not stated)	> 100
CCOC1NC(=O)c2ccccc21 (configuration not stated)	> 100
Cc1cn(C2CC(OC(c3ccccc3)(c3ccccc3)c3ccccc3)C(COC(c3ccccc3)(c3ccccc3)c3ccccc3)O2)c(=O)[nH]c1=O (configuration not stated)	> 100
CCOC(=O)C(NC(=O)c1ccc(N=NN(C)C)cc1)C(C)C (configuration not stated)	> 100
COc1cc(CCCOC2OC(COC3OCC(O)C(O)C3O)C(O)C(O)C2O)cc2cc(-c3ccc4c(c3)OCO4)oc12 (configuration not stated)	> 175
O=CN(O)CC(=O)O	> 100
C(=N/Nc1ccc(-c2nc3ccccc3[nH]2)cc1)/c1c(-c2ccccc2)[nH]c2ccccc12	> 100
CC1OC(n2cc(F)c(=O)[nH]c2=O)C(O[Si](C)(C)C(C)(C)C)C1O[Si](C)(C)C(C)(C)C (configuration not stated)	42
Cc1ccc(-n2cc(-c3ccc(Cl)cc3)c3c2N=CN2NC(c4ccco4)=NC32)cc1 (configuration not stated)	> 100
c1ccc([P+](Cc2csnn2)(c2ccccc2)c2ccccc2)cc1	> 100

SMILES	TGI [µM]
c1ccc(-c2ccc(N=NN3CCCC3)cc2)cc1	> 100
COc1cc2nc(-c3c(F)cccc3F)n(Cc3c(F)cccc3F)c2cc1Cc1c(F)cccc1F	> 100
CC(C)Cc1c(C#N)c(C#N)c(N)n1Cc1ccccc1	> 100
NS(=O)(=O)c1nnc(NSc2ccc([N+](=O)[O-])cc2)s1	> 100
CCC1(CC)C(=O)NC(=S)N=C1N	> 100
CC1=NC(C)(C)N(O)C1(C)C	> 100
CCCC[C@@H]1CCN2C[C@@H](O)[C@@H](O)[C@H]2[C@@H]1O	> 100
O=C(NN1C(=O)CSC1c1ccc(Cl)c(Cl)c1)c1ccncc1 (configuration not stated)	> 100
CCOC(=O)c1csc(NC(=O)CCCC#N)n1	> 100
O=c1cc(-c2ccccc2F)[nH]c2cc3c(cc12)OCO3	> 78.8
CCNC(=S)N/N=C/c1ccccn1	> 100
C=C1CC=CC(C)(C)C1C/C=C(\C)C(O)CBr (configuration not stated)	53.5
CCOC(=O)C(C)NC(=O)N(C)C12CC3CC(CC(C3)C1)C2 (configuration not stated)	323
O=c1c2cc3c(=O)n(CCc4ccccc4CO)c(=O)c3cc2c(=O)n1CCc1ccccc1CO	> 100
CCc1cc(=O)n(/C(C)=C/c2ccccc2)n1C	> 100
N/C(CSCCSC/C(N)=N/O)=N\O	> 100
